Patent US12295972B2, “Methods using freeze-dried platelet derivative compositions for restoring hemostasis in a subject” (Cellphire, Inc., priority 2021, dated 2025)
“Also recorded” adds a separate entry of the source. Where a SMILES comes first, the peptide text is derived from it. Bridges are numbered along the chain shown (N, C = ends). [ ]: non-standard residue; d: D form. hArg = N=C(N)NCCCC[C@H](N)C(=O)O; Mpa = O=C(O)CCS

Key:
[1] = tested on: platelet rich plasma; assay: T-TAS AR chip (collagen and tissue factor) occlusion, platelet rich plasma; type: cell-based, human
[2] = tested on: platelets in platelet-rich plasma (PRP); assay: Transmission light aggregometry of platelets in PRP with antiplatelet agents; type: cell-based, human
Method: Plasma samples with platelet or FDPDs or combination of both are loaded into cuvettes and placed into the aggregometry chambers. The chambers warm the sample and provide constant stirring. The initiation of aggregation can be done by multiple types of […] agents not limited to thrombin, ADP, collagen and any agent know to stimulate platelet aggregation. […] The instrument begins the assay by first recording the light transmission previous to stimulation for 2 minutes. The stimulant of interest is then introduced by the technician and the change in light transmission is recorded overtime. The increase in light transmission corresponds to increase in platelet aggregation.

[3] = tested on: whole blood; assay: T-TAS AR chip occlusion, whole blood; type: cell-based, human; conditions: 6 μM eptifibatide
Source text: The effect of FDPDs on shortening clotting times while in the presence of eptifibatide was also studied. The ability of FDPDs to recover occlusion times was studied on the T-TAS® system. The T-TAS® system measures occlusion time under shear forces with collagen and thromboplastin stimulation. The whole blood profile of occlusion and AUC on the AR T-TAS® chip lengthened and decreased, respectively, with eptifibatide. Eptifibatide extended the occlusion time of whole blood on the T-TAS® AR Chip in a dose-dependent manner. In this experiment, whole blood occluded at 8 minutes, and the occlusion time was extended to 16 minutes with 6 μM eptifibatide (FIG. 9). FDPDs reversed the inhibitory effect of eptifibatide on thrombus formation. Eptifibatide inhibition of whole blood occlusion on the T-TAS® AR Chip was reversed by the addition of FDPDs at approximately 200,000/μL (N=3). When FDPDs (approximately 200 k/μL) were added to the sample of whole blood inhibited with eptifibatide, the time to occlusion decreased to ‘normal’ at 9 minutes (FIG. 10).
Evaluation by T-TAS® using an AR chip. […]
Occlusion time was measured on the Total […] formation Analysis System (T-TAS®) 01 using AR chips (Collagen and Tissue FactorF stimulant). […] FDPDS were rehydrated, counted (Beckman Coulter AcT Diff 2 Cell Counter), and added to whole blood at the indicated final concentration. […]

[4] = tested on: platelet function; conditions: in vivo; cited from earlier work
[5] = tested on: pooled normal plasma; assay: Activated clotting time (ACT) in pooled normal plasma with heparin and protamine; type: biochemical, human; conditions: heparin titration
Method: This experiment assessed how clinical proportions of Heparin and Protamine affect FDPD function. FDPDs were prepared according to the procedure in Example 15. An Activating Clotting Time (ACT) assay was performed to measure time to clot and TGA was performed to measure thrombin generation. An initial Heparin titration run was performed using ACT to find the minimum Heparin dose needed to reach abnormal clot time.
Activated clotting time was measured using pooled normal plasma with heparin (H) and protamine (P) as labeled on the x-axis; ½ P, P, and 3/2 P represent protamine doses of 4, 8, and 12 μg/ml, respectively. FDPDs, (referred to as “Tsomes” in FIG. 40) were added at 10, 25 or 50 K/μl. […] “K” in the legend stands for 10^3 FDPDS. All samples were run in duplicate. N=2. The experiment was repeated on separate days to improve statistical relevance.

[6] = tested on: platelet rich plasma; assay: T-TAS AR chip (collagen and tissue factor) occlusion, platelet rich plasma; type: cell-based, human; conditions: for occlusion time of ADP stimulated PRP: ADP 2 μM, cangrelor 1 μM (n=4) or ticagrelor 500 ng/mL (n=5)
Method: The effect of cangrelor on platelet occlusion under shear was evaluated by T-TAS®.
Evaluation by T-TAS® using an AR chip. AR chips are characterized by a single channel containing collagen and tissue factor; they can be used to analyze clotting and platelet function.

[7] = tested on: whole blood; assay: T-TAS PL chip (collagen only) thrombus formation, whole blood; type: cell-based, human; conditions: 100 and 500 μM aspirin
Source text: Platelets will aggregate with collagen and arachidonic acid stimulation. […] The PL chip system on the T-TAS® was used to emulate in vitro platelet binding and aggregation due to the exposure of collagen in the vasculature under shear conditions.
PL chips are run similarly to AR chips but this chip is only coated with collagen alone.

[8] = tested on: thrombin generation; assay: Thrombin generation assay (TGA); type: biochemical, human; conditions: PPP from patients taking baby aspirin daily; absence of FDPDs
[9] = same 500 mg dose orally; cited from earlier work
[10] = cangrelor 1 μM combined with ADP 10 μM

CC(C)Cc1ccc(C(C)C(=O)O)cc1 (centres unmarked) [ibuprofen]
occlusion of PRP from ibuprofen patient ([1]; addition of ADP): abolished occlusion | occlusion of PRP from ibuprofen patient ([1]; subject on 800 mg ibuprofen): demonstrated occlusion | aggregation in response to arachidonic acid ([2]; PRP from subject on 800 mg ibuprofen): lack of aggregation

N=C(N)NCCCC[C@@H]1NC(=O)CCSSC[C@@H](C(N)=O)NC(=O)[C@@H]2CCCN2C(=O)[C@H](Cc2c[nH]c3ccccc23)NC(=O)[C@H](CC(=O)O)NC(=O)CNC1=O [eptifibatide] ([Mpa][hArg]GDWPC-NH2; disulfide 1-7)
occlusion time of PRP ([1]; 9 μM eptifibatide): over 30 minutes | occlusion time of whole blood [3]: 16 min | collagen-induced platelet aggregation in PRP ([2]; collagen 10 μg/mL, all eptifibatide concentrations tested): completely inhibited | time for bleeding time to return to normal after drug stoppage [4]: ≤ 1 h

heparin
minimum Heparin dose needed to reach abnormal clot formation [5]: 0.8 U/mL

CCCCS(=O)(=O)N[C@@H](Cc1ccc(OCCCCC2CCNCC2)cc1)C(=O)O [tirofiban]
occlusion time of PRP ([1]; 100 ng/mL tirofiban): no occlusion

CCCSc1nc(N[C@@H]2C[C@H]2c2ccc(F)c(F)c2)c2nnn([C@@H]3C[C@H](OCCO)[C@@H](O)[C@H]3O)c2n1 [ticagrelor]
occlusion time of ADP stimulated PRP [6]: 28.0 ± 3.0 min | time until platelet function can return after the last dosage [4]: approximately 72 hours

CSCCNc1nc(SCCC(F)(F)F)nc2c1ncn2[C@@H]1O[C@H](COP(=O)(O)OP(=O)(O)C(Cl)(Cl)P(=O)(O)O)[C@@H](O)[C@H]1O [cangrelor]
occlusion time of PRP ([6]; 100 ng/mL cangrelor and ADP): 26 min | occlusion time of ADP stimulated PRP [6]: 28.0 ± 3.0 min | area under the curve (AUC) of PRP [6, 10]: dropped close to zero | platelet adhesion and occlusion of PRP [6, 10]: essentially eliminated; also recorded: inhibited occlusion essentially completely | area under the curve (AUC) of PRP ([6]; cangrelor alone 1 μM): little effect | occlusion / occlusion time of PRP ([6]; cangrelor alone 1 μM): did not exhibit inhibition; also recorded: little effect | ADP-induced platelet aggregation in PRP ([2]; 10 μM ADP, cangrelor 0.5 μM-3.5 μM): complete inhibition

CC(=O)Oc1ccccc1C(=O)O [aspirin, acetylsalicylic acid]
platelet binding and aggregation on collagen under shear [7]: largely limited | occlusion time of PRP ([1]; PRP 30K/μL): > 30 min | occlusion of PRP taken from an aspirin patient ([1]; ex vivo, subject on 81 mg/day of aspirin): failed to occlude | arachidonic acid induced platelet aggregation in PRP ([2]; AA 500 ug/mL, aspirin 100-400 μM): eliminated arachidonic acid induced platelet aggregation entirely | collagen stimulated platelet aggregation in PRP ([2]; collagen 10 ug/mL, aspirin 100-400 μM): partially inhibited | peak thrombin [8]: about 45 nM | peak concentration [9]: 44 µM

COC(=O)[C@H](c1ccccc1Cl)N1CCc2sccc2C1 [clopidogrel]
time until platelet function is returned after stopping infusion [4]: approximately 1 hour
